Test results from patent publication US10822348B2, “Inhibitors of Bruton's tyrosine kinase and methods of their use” (JANSSEN PHARMACEUTICA NV, priority 2015, dated 2020).

Biological target: unphosphorylated-BTK kinase domain (UP-BTK), GST-tagged human BTK (389-659aa) (Homo sapiens (Human), UniProt Q06187)
Assay: BTK kinase Lanthascreen binding assay
Settings: for BTK_I_binding pIC50: 60 minutes incubation
Method: BTK Kinase Lanthascreen Binding Assay:
A BTK kinase lanthascreen binding assay monitors compound binding to unphosphorylated-BTK kinase domain (UP-BTK), by competing with a fluorescent labeled tracer. […] Data were analyzed using Xlfit™ version 5.3 from ID Business Solutions (Guildford), Microsoft Excel add-in. pIC50 refers to the negative log of the IC50 in molar.

[1] = unphosphorylated-BTK kinase domain, pIC50 = negative log of the IC50 in molar

Sequence of unphosphorylated-BTK kinase domain (UP-BTK), GST-tagged human BTK (389-659aa) (Q06187 389-659): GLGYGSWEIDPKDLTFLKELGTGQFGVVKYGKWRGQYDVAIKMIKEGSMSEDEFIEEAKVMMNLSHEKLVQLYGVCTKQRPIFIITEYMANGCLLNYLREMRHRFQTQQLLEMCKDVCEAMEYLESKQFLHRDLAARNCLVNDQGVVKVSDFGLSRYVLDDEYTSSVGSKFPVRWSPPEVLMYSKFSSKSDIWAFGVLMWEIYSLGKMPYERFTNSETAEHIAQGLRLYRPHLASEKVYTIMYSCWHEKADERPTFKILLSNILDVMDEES

| BTK_I_binding pIC50 [1] | Structure (SMILES) | other results |
| --- | --- | --- |
| 8.2 | C=CC(=O)N1C[C@H](NC(=O)c2sc3nccc4c3c2NC(=O)N4c2ccc(Oc3ccccc3)cc2C)C[C@@H](OC)C1 (relative stereo) [Example 481, N-((3R,5R)-1-Acryloyl-5-methoxypiperidin-3-yl)-5-(*S)-(2-methyl-4-phenoxyphenyl)-4-oxo-4,5-dihydro-3H-1-thia-3,5,8-triazaacenaphthylene-2-carboxamide] |  |
| 8.0 | C=CC(=O)N1C[C@H](NC(=O)c2sc3nccc4c3c2NC(=O)N4c2ccc(Oc3ccccc3)cc2C)C[C@H](OC)C1 (relative stereo) [Example 482, N-((3R,5S)-1-Acryloyl-5-methoxypiperidin-3-yl)-5-(*S)-(2-methyl-4-phenoxyphenyl)-4-oxo-4,5-dihydro-3H-1-thia-3,5,8-triazaacenaphthylene-2-carboxamide] |  |
| 8.0 | C=CC(=O)N1C[C@@H](F)C[C@@H](NC(=O)c2sc3nccc4c3c2NC(=O)N4c2ccc(Oc3ccccc3)cc2C)C1 (relative stereo) [Example 484, N-((3R,5S)-1-Acryloyl-5-fluoropiperidin-3-yl)-5-(*S)-(2-methyl-4-phenoxyphenyl)-4-oxo-4,5-dihydro-3H-1-thia-3,5,8-triazaacenaphthylene-2-carboxamide] |  |
| 7.7 | C=CC(=O)N1C[C@H](NC(=O)c2sc3nccc4c3c2NC(=O)N4c2ccc(Oc3ccccc3)cc2C)[C@@H](OC)C1 (relative stereo) [Example 490, N-((3S,4S)-1-Acryloyl-4-methoxypyrrolidin-3-yl)-5-(*S)-(2-methyl-4-phenoxyphenyl)-4-oxo-4,5-dihydro-3H-1-thia-3,5,8-triazaacenaphthylene-2-carboxamide] |  |
| 7.7 | C=CC(=O)N1C[C@H](NC(=O)c2sc3nccc4c3c2NC(=O)N4c2ccc(Oc3ccccc3)cc2C)[C@H](OC)C1 (relative stereo) [Example 508, N-((3S,4R)-1-Acryloyl-4-methoxypyrrolidin-3-yl)-5-(*S)-(2-methyl-4-phenoxyphenyl)-4-oxo-4,5-dihydro-3H-1-thia-3,5,8-triazaacenaphthylene-2-carboxamide] |  |
|  | C=CC(=O)N1C[C@@H](O)C[C@@H](NC(=O)c2sc3nccc4c3c2NC(=O)N4c2ccc(Oc3ccccc3)cc2C)C1 (single isomer, unassigned) [Example 2, N-((3R,5S)-1-Acryloyl-5-hydroxypiperidin-3-yl)-5-(*S)-(2-methyl-4-phenoxyphenyl)-4-oxo-4,5-dihydro-3H-1-thia-3,5,8-triazaacenaphthylene-2-carboxamide] | IC50 (read-out: BTK_I_binding pIC50 (converted)): 6.31 nM |
|  | C=CC(=O)N1CCC[C@@H](NC(=O)c2sc3nccc4c3c2NC(=O)N4c2ccc(Oc3ccccc3)cc2C)C1 (single isomer, unassigned) [Example 9, (R)—N-(1-Acryloylpiperidin-3-yl)-5-(*S)-(2-methyl-4-phenoxyphenyl)-4-oxo-4,5-dihydro-3H-1-thia-3,5,8-triazaacenaphthylene-2-carboxamide] | BTK_I_binding pIC50 (negative log of the IC50 in molar, 50 nM Tracer 236): 8.1 |

| Structure (SMILES) | BTK_I_binding pIC50 [1] | other results |
| --- | --- | --- |
| C=CC(=O)N1C[C@H](O)C[C@@H](NC(=O)c2sc3nccc4c3c2NC(=O)N4c2ccc(Oc3ccccc3)cc2C)C1 (relative stereo) [Example 483, N-((3R,5R)-1-Acryloyl-5-hydroxypiperidin-3-yl)-5-(*S)-(2-methyl-4-phenoxyphenyl)-4-oxo-4,5-dihydro-3H-1-thia-3,5,8-triazaacenaphthylene-2-carboxamide] | 8.4 |  |
| C=CC(=O)N1C[C@H](NC(=O)c2sc3nccc4c3c2NC(=O)N4c2ccc(Oc3ccccc3)cc2C)[C@@H](F)C1 (relative stereo) [Example 486, N-((3S,4S)-1-Acryloyl-4-fluoropyrrolidin-3-yl)-5-(*S)-(2-methyl-4-phenoxyphenyl)-4-oxo-4,5-dihydro-3H-1-thia-3,5,8-triazaacenaphthylene-2-carboxamide] | 7.8 |  |
